# In patent publication US5077195A, “Polypeptides complementary to peptides or proteins having an amino acid sequence or nucleotide coding sequence at least partially known and methods of design therefor” (Board of Reagents, The University of Texas System, priority 1986, dated 1991):
# Where no end group is shown, it is not given here.
# What was measured:
# [1] = test system: female ICR mice; assay: Induction of catatonia in mice by i.c. injection of serum; format: in vivo; details: simultaneous i.c. injection 0.2 mg
# Text: It is well known that large doses of opiate-like substances can induce a catatonic state in animals which is inhibited or reversed by treatment with the opiate antagonist naloxone. In analogy with the results in earlier examples, the ability of a peptide (gamma-ODNE) complementary to an opiate peptide, gamma-endorphin, to induce antibodies that have opiate properties was examined.
# Gamma-ODNE (Example II) was conjugated to Keyhole Limpet Hemocyanin ([…]) and used with Freund's adjuvant to generate rabbit antibodies in a conventional manner (see Example 1F). Both normal and induced rabbit sera were injected intracerebroventicularly (i.c.) into female ICR mice.
# [2] = test system: HTCA; assay: Solid phase radiobinding assay for ACTH in serum on HTCA-coated wells; format: binding; details: for Log10 Dilution at which 50% inhibition occurred: graphic interpolation
# Description: Complementary peptide (HTCA) was dissolved in phosphate buffered saline (PBS) at 1 mg/ml and 200 ul aliquots were placed in wells of a 96 well polyvinyl assay plate (Microtest III, Falcon Cat. #3911). HTCA was allowed to coat the wells overnight at 4° C. The coating solution was removed and the wells were washed three times with PBS. Radiolabeled ACTH (^125 I-ACTH, New England Nuclear NEX-65) was diluted into PBS containing 0.0005% TWEEN-20 so as to deliver 50 pg (or about 30,000 cpm) in a 20 ul volume.
# Serum samples were prepared in a 96 well tissue culture plate by serial dilution of serum into PBS/TWEEN 20 to give a final volume of 180 ul/well. The serum samples were then transferred to the HTCA coated a ssay plate and allowed to incubate. Finally, 20 ul of ^125 I-ACTH solution was added, incubated, and the total sample of 200 ul was removed. After washing three times with PBS, the wells were cut from the plate and counted in a gamma counter.
# Serum samples used in this study contained either 50 pg/ml or 500 pg/ml of ACTH added to fetal calf serum (FCS).
# [3] = test system: mouse adrenal tumor (Y-1) cells; assay: Binding of anti-HTCA to affixed Y-1 cells (ELISA); details: FIG. 5
# Description: Mouse adrenal tumor (Y-1) cells were affixed by glutaraldehyde in flat bottom wells of a microtiter plate. The affixed cells were then treated with rabbit anti-KLH or rabbit anti-HTCA alone or in the presence of several levels of ACTH. After washing, the microtiter wells were treated with goat antibody to rabbit immunoglobulin the goat antibody being coupled to the enzyme alkaline phosphatase. After washing away unbound antibody-phosphatase complex, p-nitrophenyl phosphate was added and the enzyme dependent development of absorbancy at […] was monitored. […] ACTH and anti-HTCA appeared competitive for the same binding site on the mouse adrenal tumor (Y-1) cells. Rabbit anti KLH had no effect (shaded region).
# [4] = test system: antibody to ACTH; assay: Competition in standard RIA for ACTH; format: binding
# Description: Using a standard Radioimmunoassay (RIA) for ACTH (Immuno Nuclear Corporation, CAT. #2400), the ability of antibodies to a peptide (HTCA) complementary to ACTH to bind with antibodies to ACTH was determined. In a Standard RIA for ACTH, unlabelled ACTH is added in known amounts to a solution of radiolabelled ACTH and antibody to ACTH to compete away the binding of radiolabelled ACTH to its antibody. The amount of radiolabel bound is determined by immunoprecipitating the antibody and counting the radioactivity of the precipitiate.
# In the experiment, unlabelled ACTH, immunoglobulin from rabbits immunized with the complementary peptide HTCA, and immunoglobulins from normal rabbits were used to compete with radiolabelled ACTH in the RIA. Immunoglobulin (35 mg/ml) solutions were prepared in phosphate buffered saline, and ACTH and ^125 I-ACTH were prepared as specified in the RIA kit.
# [5] = test system: mouse adrenal tumor (Y-1) cells; assay: Glucocorticoid hormone production by Y-1 cells (corticosterone RIA); format: cell-based; details: ACTH 10 microunits/well, 18 hrs
# Description: An induction of glucocorticoid hormone production by ACTH and anti-HTCA was found with cultured mammalian cells. Duplicate cultures of mouse adrenal tumor (Y-1) cells in microtiter plates were treated with culture media, ACTH (10 microunits/well) or various dilutions of the anti-HTCA.
# ^a Duplicate cultures of mouse adrenal (Y1) cells in microtiter plate
# were treated with culture media, ACTH (10 microunits/well) or the
# indicated dilutions of antibody to HTCA. After 18 hrs incubation at
# 37° in 4% CO2, replicate cultures were pooled and assayed for
# glucocorticoid hormone production by a radioimmunoassay (RIA) for […]
# [6] = target: T1, bovine gamma-endorphin (Bos taurus, UniProt P01190); assay: ELISA binding of gamma-endorphin to coated wells; details: gamma-odne 40 ug/well; compared with insulin or BSA coating
# T1 construct: purchased Boehringer Mannheim (Indianapolis, IN); host or cells: chemical synthesis
# Description: The wells of a 96-well round-bottomed microtiter plate were coated (by the procedure described in Example 1B) with gamma-odne (40 ug/well), insulin (20U/well) or bovine serum albumin (BSA, 200 ug/well). Varying concentrations of gamma-endorphin (as shown on the abscissa in FIG. 7) were incubated in the coated wells for 1 hr, after which the plates were thrice washed with PBS-Tween buffer. The wells were then treated with rabbit antibody for gamma-endorphin, washed, and then treated with goat antibody against rabbit immunoglobulin the goat antibody being conjugated to alkaline phosphatase. After washing away unbound goat antibody conjugate, the bound alkaline phosphatase activity was measured with p-nitrophenylphosphate as earlier described. The results of the above manipulations are shown in FIG. 7 where the extent of absorbance at 405 nm reflects the degree of gamma-endorphin binding to wells coated with gamma-odne, insulin or BSA. […] The shaded area in FIG. 7 represents the extent of gamma-endorphin binding in the presence of soluble excess of gamma-odne. Thus it is shown that a second pair of complementary peptides interacts in a manner showing affinity and apparent congruence.
# [7] = target: T2, opiate receptors on NG108-15 cells (Mus musculus, UniProt P32300); assay: Binding of ^125 I-beta-endorphin to NG108-15 cells; details: read-out: % Inhibition of Specific ^125 I-beta-endorphin
# T2 construct: opiate receptors on NG108-15 cells; endogenous in cells; host or cells: NG108-15 cells
# Description: Seventy percent of the total binding was specific by conventional criteria.
# For this experiment, ^125 I-beta-endorphin was preincubated 30 minutes with various amounts of the complementary peptide, gamma-ODNE, before a 30 minute (37° C.) incubation with NG108-15 cells in microtiter wells. After the incubation, cells were washed 3 times and cell associated radioactivity wad determined with a Packard Multi-Prias gamma counter.
# T2 sequence (P32300 whole entry): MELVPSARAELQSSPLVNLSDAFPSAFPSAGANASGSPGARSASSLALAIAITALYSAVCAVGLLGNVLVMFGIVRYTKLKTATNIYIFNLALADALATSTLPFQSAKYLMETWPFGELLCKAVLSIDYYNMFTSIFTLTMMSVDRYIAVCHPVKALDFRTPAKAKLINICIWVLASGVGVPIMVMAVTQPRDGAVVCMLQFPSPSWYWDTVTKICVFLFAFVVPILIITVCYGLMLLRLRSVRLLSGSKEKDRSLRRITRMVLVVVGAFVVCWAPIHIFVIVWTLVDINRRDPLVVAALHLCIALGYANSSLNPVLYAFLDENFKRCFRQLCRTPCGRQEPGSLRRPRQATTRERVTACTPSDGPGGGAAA
# Chain of HTCA (as listed by the source): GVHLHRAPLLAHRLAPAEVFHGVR
compound,measurement,setting,value
C=CCN1CC[C@]23c4c5ccc(O)c4O[C@H]2C(=O)CC[C@@]3(O)[C@H]1C5 [naloxone],reversal of serum-induced catatonia (in words),[1],reversed
"ACTH: Synthetic ACTH, fragment 1-24, obtained from Organon; unlabelled ACTH of RIA kit in later examples",% Inhibition of Specific Binding,"[2]; 50 pg/ml ACTH in FCS, Log10 Dilution 0",91%
same,Log10 Dilution at which 50% inhibition occurred,[2]; 50 pg/ml serum sample,-1.1
same,% Inhibition of Specific Binding,"[2]; 50 pg/ml, Log10 Dilution -0.5",73%
same,% Inhibition of Specific Binding,"[2]; 50 pg/ml, Log10 Dilution -1.0",40%
same,% Inhibition of Specific Binding,"[2]; 50 pg/ml, Log10 Dilution -1.5",44%
same,% Inhibition of Specific Binding,"[2]; 50 pg/ml, Log10 Dilution -2.0",9%
same,% Inhibition of Specific Binding,"[2]; 50 pg/ml, Log10 Dilution -2.5",1%
same,% Inhibition of Specific Binding,"[2]; 50 pg/ml, Log10 Dilution -3.0",0%
same,% Inhibition of Specific Binding,"[2]; 50 pg/ml, Log10 Dilution -3.5",0%
same,% Inhibition of Specific Binding,"[2]; 500 pg/ml ACTH in FCS, Log10 Dilution 0",85%
same,Log10 Dilution at which 50% inhibition occurred,[2]; 500 pg/ml serum sample,-2.0
same,% Inhibition of Specific Binding,"[2]; 500 pg/ml, Log10 Dilution -0.5",90%
same,% Inhibition of Specific Binding,"[2]; 500 pg/ml, Log10 Dilution -1.0",77%
same,% Inhibition of Specific Binding,"[2]; 500 pg/ml, Log10 Dilution -1.5",57%
same,% Inhibition of Specific Binding,"[2]; 500 pg/ml, Log10 Dilution -2.0",53%
same,% Inhibition of Specific Binding,"[2]; 500 pg/ml, Log10 Dilution -2.5",35%
same,% Inhibition of Specific Binding,"[2]; 500 pg/ml, Log10 Dilution -3.0",32%
same,% Inhibition of Specific Binding,"[2]; 500 pg/ml, Log10 Dilution -3.5",20%
same,"effect on binding to Y-1 cells, absorbancy at 405 nM (in words)",[3],blocked binding of the anti-HTCA in a dose dependent manner
same,Percent Specific Binding,[4]; competitor 20 pg/ml,90%
same,Percent Specific Binding,[4]; competitor 50 pg/ml,77.5%
same,Percent Specific Binding,[4]; competitor 100 pg/ml,62.2%
same,Percent Specific Binding,[4]; competitor 200 pg/ml,42%
same,Percent Specific Binding,[4]; competitor 500 pg/ml,21.6%
same,Corticosterone equivalents,[5]; Experiment 1,1.08 µg/mL
same,Corticosterone equivalents,[5]; Experiment 2,1.42 µg/mL
"QRDKGRLALLGGHEPAV [gamma-odne, H2 N--gln--arg--asp--lys--gly--arg--leu--ala--leu--leu--gly--gly--his--glu--pro--ala--val--COOH]","gamma-endorphin binding to coated wells, absorbance at 405 nM (in words)",[6],significantly bound
same,inhibition at 100 µM,[7]; 10^-4 M,75 ± 0.6%
same,inhibition at 10 µM,[7]; 10^-5 M,36 ± 2.1%
same,inhibition at 1 µM,"[7]; 10^-6 M, 30 min preincubation with 10^-11 M label",24.7 ± 3.9%
